In patent US20100248390A1, “COMPOSITIONS AND METHODS FOR IDENTIFYING LIGANDS OF ODORANT RECEPTORS” (DUKE UNIVERSITY, priority 2009, published 2010):
Where two headings read alike, the source gives them in different places.

Experiments:
[1] = molecular target: T1, human odorant receptors (ORs) (Homo sapiens, UniProt Q8WZ94); assay: CRE-luciferase assay of odorant receptor activation (Dual-Glo, Hana3A cells, RTP1S), dose-response EC50; assay type: cell-based; settings: receptor OR5P3
T1 construct: OR open reading frames were amplified from genomic DNA; expressed in transfected cells; host or cells: Hana3A cells, co-transfected with RTP1S, CRE-luciferase and pRL-SV40
T1 sequence (Q8WZ94 1-311): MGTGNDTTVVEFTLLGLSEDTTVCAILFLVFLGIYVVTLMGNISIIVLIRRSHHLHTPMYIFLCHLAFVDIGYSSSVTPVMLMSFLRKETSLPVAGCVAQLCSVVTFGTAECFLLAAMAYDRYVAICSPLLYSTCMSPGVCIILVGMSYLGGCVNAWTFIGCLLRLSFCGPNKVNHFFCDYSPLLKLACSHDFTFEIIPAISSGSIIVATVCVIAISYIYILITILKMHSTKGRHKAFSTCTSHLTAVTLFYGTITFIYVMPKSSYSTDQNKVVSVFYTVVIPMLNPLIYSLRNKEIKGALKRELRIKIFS
Outline: (§1)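 Hana3A cells were co-transfected with Rho-tagged OR, RTP1S, CRE-luciferase and pRL-SV40, then exposed to odorant in CD293 medium for 4 hrs at 37° C. Firefly luminescence was divided by Renilla and normalized as (LN−Lmin)/(Lmax−Lmin) per plate set. Each dose was tested at least three times, and EC50 came from sigmoidal fits.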

[2] = molecular target: T2, human odorant receptors (ORs) (Homo sapiens, UniProt O76002); assay: as above; assay type: cell-based
T2 construct: OR open reading frames were amplified from genomic DNA; expressed in transfected cells; host or cells: Hana3A cells, co-transfected with RTP1S, CRE-luciferase and pRL-SV40
T2 sequence (O76002 1-312): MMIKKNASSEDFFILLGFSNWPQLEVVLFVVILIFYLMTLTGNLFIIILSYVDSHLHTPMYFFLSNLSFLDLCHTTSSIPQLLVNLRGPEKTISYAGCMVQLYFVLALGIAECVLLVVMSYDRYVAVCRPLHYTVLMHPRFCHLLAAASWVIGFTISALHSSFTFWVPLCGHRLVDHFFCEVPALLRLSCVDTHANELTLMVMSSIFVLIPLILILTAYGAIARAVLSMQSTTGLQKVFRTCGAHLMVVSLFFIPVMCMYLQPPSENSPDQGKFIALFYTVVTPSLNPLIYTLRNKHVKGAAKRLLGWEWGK
Outline: as §1

[3] = read-out: log EC50 (Table 4 value), OR5P3 (converted)

Row | log EC50, OR5P3 ([1]; 0 = no response) | EC50 [1, 3] [µM] | SMILES | further results
1 | −4.645 | – | C=C(C)C1CC=C(C)C(=O)C1 (single isomer, unassigned; (-)) [(−)-Carvone] | –
2 | – | – | CCCCCCCCCCO [1-Decanol] | EC50 [2]: 384 µM
3 | – | – | CCCCCCCO [1-Heptanol] | EC50 ([2]; receptor OR2J2, 0 = no response, read-out: log EC50, OR2J2 (converted)): 536 µM; EC50 ([1]; 0 = no response, read-out: log EC50, OR5P3 (converted)): 1090 µM
4 | −5.173 | – | C=C(C)[C@H]1CC=C(C)C(=O)C1 [(+)-Carvone] | –
5 | – | 126 | CC(=O)c1ccccc1 [Acetophenone] | –
6 | – | 5.62 | O=c1ccc2ccccc2o1 [Coumarin] | EC50 ([2]; receptor OR2J2, read-out: log EC50 (Table 4 value), OR2J2 (converted)): 274 µM
